Measured values published in patent publication US20240409542A1, “NOVEL COMPOUNDS” (Sitryx Therapeutics Limited, priority 2021, published 2024).
In brackets after ≈: the same amount, converted by molar mass. Marks after values point to notes of the source that are not given here.

Key:
[1] = molecular target: recombinant human PKM2 (Homo sapiens (Human), UniProt P14618); assay: Human PKM2 activation assay (Kinase-Glo Plus luminescence); format: biochemical; settings: for EC50: activation of recombinant human PKM2, 4-parameter logistic fit, read-out: hPKM2 EC50; for Emax: read-out: hPKM2 Emax (%)
Protocol: Compound activation of recombinant human PKM2 pyruvate kinase activity was determined by biochemical assay. N-terminal His-tagged hPKM2 was sourced from R&D Systems and its substrates phosphoenolpyruvate (PEP) and ADP from Sigma-Aldrich and 2BScientific Ltd, respectively. The Kinase-Glo® Plus luminescence assay was from Promega. All other reagents were from Sigma-Aldrich. Test Compounds were prepared as 10 mM DMSO stocks and dilution series prepared in DMSO for direct dilution into Assay Buffer comprising 50 mM imidazole, 50 mM KCl, 7 mM MgCl2, 0.01% Tween20, 0.05% BSA (pH 7.2).
Human PKM2 was diluted into Assay Buffer comprising 50 mM imidazole, 50 mM KCl, 7 mM MgCl2, 0.01% Tween20, 0.05% BSA (pH 7.2) to a final concentration of 5 pM. Enzyme-Assay Buffer mix was dispensed into a 384-well shallow-well white-walled plate (PerkinElmer) and Test Compounds added by acoustic dispense (Echo®, Labcyte Inc.).
After 60 minutes' incubation on an orbital shaker (300 rpm, 26° C.), enzyme activity was quantified by the luminescent detection of generated ATP. Kinase-Glo® Plus reagent was added to each well and the plates incubated for a further 15 minutes on an orbital shaker in the dark (300 rpm, 26° C.) before luminescence measurement on a plate reader (PHERAstar® FSX, BMG Labtech).
EC50 and Emax values were determined from 4-parameter logistic fits of compound concentration-response curves.

[2] = molecular target: recombinant human PKLR (Homo sapiens (Human), UniProt P30613); assay: Human PKLR activation assay (Kinase-Glo Plus luminescence); settings: for Emax: read-out: hPKLR Emax (%)
Protocol: Compound activation of recombinant human PKLR pyruvate kinase activity was determined by biochemical assay. N-terminal His-tagged enzyme was sourced from R&D Systems and its substrates phosphoenolpyruvate (PEP) and ADP from Sigma-Aldrich and 2BScientific Ltd, respectively. The Kinase-Glo® Plus luminescence assay was from Promega. All other reagents were from Sigma-Aldrich. Test Compounds were prepared as 10 mM DMSO stocks and dilution series prepared in DMSO for direct dilution into Assay Buffer comprising 50 mM imidazole, 50 mM KCl, 7 mM MgCl2, 0.01% Tween20, 0.05% BSA (pH 7.2).
Human PKLR was diluted into Assay Buffer to a final concentration of 5 pM. Enzyme-Assay Buffer mix was dispensed into 384-well shallow-well white-walled plates and Test Compounds added by acoustic dispense (Echo®, Labcyte Inc).

[3] = Kinetic aqueous solubility; settings: PBS pH 7.4, 200 μM (2% DMSO), RT; for solubility kinetic at 1.5 h: phosphate buffered saline (PBS) pH 7.4, pH 7.4, aqueous buffer, kinetic from dmso stock, Kinetic solubility (Ksol), (μg/ml)
Protocol: Phosphate buffered saline (PBS) pH 7.4 was prepared using PBS tablets as per the manufacturer's instructions. Compounds and marker stocks are prepared at 10 mM in DMSO.
Compounds were incubated at 200 μM (2% DMSO) in Millipore—MSS LB PC 10 or Porvair—ref: 36004 plates in the presence of the prepared PBS pH 7.4 solution for 1.5 h, at RT, with gentle shaking. […] The samples were then analysed in a 96 well UV Star analysis plate on a plate reader from 220 nm to 500 nm at 10 nm increments.
The concentration of the samples was calculated against the standard curves.

[4] = tested on: A549 cells; assay: A549 proliferation assay in low-serine medium (CellTiter-Glo); format: cell-based; settings: Homo sapiens, 72 h, 3 days, low-serine medium (20 μM L-serine)
Protocol: The effect of compounds of Formula (I) on A549 cell proliferation in low-serine medium was assessed using a luminescence assay of viable cell number (CellTiter-Glo® 2.0, Promega) duplexed with a fluorescent cytotoxicity assessment (CellTox™ Green, Promega). Cell culture reagents were from ThermoFisher unless specified otherwise. Assay reagents were from Sigma-Aldrich unless specified otherwise. Test Compounds were prepared as 10 mM DMSO stocks and dilution series prepared in DMSO for direct dilution into culture medium.
Cells were passaged every 3-4 days at 80-90% confluence. The cell monolayer was washed twice with room-temperature Ca^2+/Mg-free PBS and 4 ml room-temperature trypsin-EDTA added to the flask. After 5 minutes' incubation (37° C., 5% CO2) to detach cells, trypsin was quenched with 13 ml warmed complete growth medium and the cells harvested and diluted to 2.4×10^4 cells/ml for dispensing into 384-well clear-bottom black-walled plates (600 cells/well).
Following overnight incubation, growth medium was aspirated from each well and the cells washed twice with Assay Medium comprising Basal Medium Eagle supplemented with 3% heat-inactivated dialysed FBS plus 2 mM L-glutamine plus 20 μM L-serine (Sigma-Aldrich). After aspiration of the final wash medium, Assay Medium containing Test Compound was added to each well. DMSO vehicle controls were included on each plate.
Cells were incubated for 3 days in a humidified incubator (37° C., 5% CO2) at which point CellTox™ Green and CellTiter-Glo® reagents were prepared according to the manufacturer's instructions. Triton-X was added to HIGH wells for cytotoxicity determination and the plate incubated for 30 minutes (20° C., ambient humidity and pCO2). CellTox™ Green reagent was added to each well and the plate covered, placed on an orbital shaker @450 rpm for 2 minutes, and incubated in the dark for 15 minutes (20° C., ambient humidity and pCO2). Endpoint fluorescence was measured using a plate reader (PHERAstar® FSX, BMG Labtech).
Following cytotoxicity determination, CellTiter-Glo® reagent was added to each well and the plate placed on an orbital shaker @450 rpm for 2 minutes to lyse cells. Plates were incubated in the dark for 15-30 minutes (20° C., ambient humidity and pCO2) prior to endpoint luminescence measurement (PHERAstar® FSX, BMG Labtech).
Proliferation was calculated by normalizing luminescence signals to LOW controls obtained from a parallel plate processed at the time of Test Compound challenge and HIGH (DMSO vehicle) wells from the compound plate. IC50 values were determined from a 4-parameter logistic fit of compound concentration-response curves.

Chain of recombinant human PKM2 (P14618 whole entry): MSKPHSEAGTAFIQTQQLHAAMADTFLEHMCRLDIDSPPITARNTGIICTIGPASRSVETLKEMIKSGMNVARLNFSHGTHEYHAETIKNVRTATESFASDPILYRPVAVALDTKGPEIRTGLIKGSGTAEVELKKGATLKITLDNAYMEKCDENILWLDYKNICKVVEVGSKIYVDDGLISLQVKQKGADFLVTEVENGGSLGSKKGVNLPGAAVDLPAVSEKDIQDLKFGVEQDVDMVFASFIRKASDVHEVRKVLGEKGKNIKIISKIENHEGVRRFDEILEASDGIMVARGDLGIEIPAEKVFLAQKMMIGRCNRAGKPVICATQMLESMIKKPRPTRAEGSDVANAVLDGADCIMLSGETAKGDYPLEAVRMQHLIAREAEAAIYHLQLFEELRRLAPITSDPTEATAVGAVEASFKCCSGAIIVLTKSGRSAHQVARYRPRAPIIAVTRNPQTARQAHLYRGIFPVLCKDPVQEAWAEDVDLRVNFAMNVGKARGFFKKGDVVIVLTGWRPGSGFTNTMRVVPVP
Chain of recombinant human PKLR (P30613 whole entry): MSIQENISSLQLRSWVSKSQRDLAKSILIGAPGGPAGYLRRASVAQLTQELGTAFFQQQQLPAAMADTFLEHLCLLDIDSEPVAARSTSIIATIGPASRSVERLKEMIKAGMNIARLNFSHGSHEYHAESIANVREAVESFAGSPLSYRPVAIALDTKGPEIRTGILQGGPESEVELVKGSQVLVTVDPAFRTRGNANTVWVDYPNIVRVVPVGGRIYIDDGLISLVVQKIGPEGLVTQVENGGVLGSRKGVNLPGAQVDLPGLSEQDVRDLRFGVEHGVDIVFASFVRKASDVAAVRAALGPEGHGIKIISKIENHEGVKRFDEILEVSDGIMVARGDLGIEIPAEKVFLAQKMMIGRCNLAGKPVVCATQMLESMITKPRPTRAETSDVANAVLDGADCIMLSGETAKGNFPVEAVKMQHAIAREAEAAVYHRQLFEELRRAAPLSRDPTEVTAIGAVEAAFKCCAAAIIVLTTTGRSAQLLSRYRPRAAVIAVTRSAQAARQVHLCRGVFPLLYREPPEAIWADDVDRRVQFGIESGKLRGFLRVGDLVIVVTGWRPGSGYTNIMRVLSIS

Structure (SMILES) | EC50 [1] [nM] | Emax [1] [%] | EC50 [2] [nM] | Emax [2] [%] | Kinetic solubility (Ksol); (μg/ml) ([3]; 1.5 h) | solubility kinetic at 1.5 h [3] [µg/mL] | IC50 [4] [nM] | Kinetic solubility (Ksol); ([3]; 1.5 h) [µg/mL]
Cn1c2c(c3cnn(Cc4ccc5c(c4)CCO5)c(=O)c31)CCN(S(C)(=O)=O)C2 [Example 1, 3-((2,3-dihydrobenzofuran-5-yl)methyl)-5-methyl-7-(methylsulfonyl)-3,5,6,7,8,9-hexahydro-4H-pyrido[4′,3′:4,5]pyrrolo[2,3-d]pyridazin-4-one] | 180 | 86.9 | 60 to 320 | 90 to 100 | 12.85* μg/ml | 13.9 (≈ 33.5 µM) | 1.6 | –
CC(O)c1cccc(Cn2ncc3c4c(n(C)c3c2=O)CN(S(C)(=O)=O)CC4)c1 (stereo not shown) [Example 3, 3-(3-(1-hydroxyethyl)benzyl)-5-methyl-7-(methylsulfonyl)-3,5,6,7,8,9-hexahydro-4H-pyrido[4′,3′:4,5]pyrrolo[2,3-d]pyridazin-4-one] | 303 | 81.4 | 60 to 320 | 100 to 117 | 17.91* μg/ml | 19 (≈ 45.6 µM) | 10.5 | –
Cn1c2c(c3cnn(Cc4cc[nH]n4)c(=O)c31)CCN(S(C)(=O)=O)C2 [Example 4, 3-((1H-pyrazol-3-yl)methyl)-5-methyl-7-(methylsulfonyl)-3,5,6,7,8,9-hexahydro-4H-pyrido[4′,3′:4,5]pyrrolo[2,3-d]pyridazin-4-one] | 1140 | 89.8 | 60 to 320 | 100 to 117 | – | 42 (≈ 116 µM) | – | –
COc1cccc(Cn2ncc3c4c(n(C)c3c2=O)CN(S(C)(=O)=O)CC4)c1F [Example 5, 3-(2-fluoro-3-methoxybenzyl)-5-methyl-7-(methylsulfonyl)-3,5,6,7,8,9-hexahydro-4H-pyrido[4′,3′:4,5]pyrrolo[2,3-d]pyridazin-4-one] | 591 | 96.7 | 60 to 320 | < 90 | – | 5.13 (≈ 12.2 µM) | 13.3 | –
CC(=O)N1CCc2c(n(C)c3c(=O)n(Cc4cccc(N)c4)ncc23)C1 [Example 8, 7-acetyl-3-(3-aminobenzyl)-5-methyl-3,5,6,7,8,9-hexahydro-4H-pyrido [4′,3′:4,5]pyrrolo[2,3-d]pyridazin-4-one] | 1740 | 83.1 | > 320 | < 90 | – | > 70.3 | 25.4 | –
Cc1ncc(S(=O)(=O)N2CCc3c(n(C)c4c(=O)n(Cc5cccc(N)c5)ncc34)C2)s1 [Example 10, 3-(3-aminobenzyl)-5-methyl-7-((2-methylthiazol-5-yl)sulfonyl)-3,5,6,7,8,9-hexahydro-4H-pyrido[4′,3′:4,5]pyrrolo[2,3-d]pyridazin-4-one] | 4680 | 72 | > 320 | 90 to 100 | – | 17.1 (≈ 36.4 µM) | 117 | –
Cn1c2c(c3cnn(Cc4csc5ccncc45)c(=O)c31)CCN(S(C)(=O)=O)C2 [Example 34, 5-methyl-7-(methylsulfonyl)-3-(thieno[3,2-c]pyridin-3-ylmethyl)-3,5,6,7,8,9-hexahydro-4H-pyrido[4′,3′:4,5]pyrrolo[2,3-d]pyridazin-4-one] | 440 | 82.6 | – | – | – | 1.8 (≈ 4.19 µM) | – | –
Cn1c2c(c3cnn(Cc4c[nH]c5cnccc45)c(=O)c31)CCN(S(C)(=O)=O)C2 [Example 36, 3-((1H-pyrrolo[2,3-c]pyridin-3-yl)methyl)-5-methyl-7-(methylsulfonyl)-3,5,6,7,8,9-hexahydro-4H-pyrido[4′,3′:4,5]pyrrolo[2,3-d]pyridazin-4-one] | 71 | 100 | 43.5 to 60 | 90 to 100 | – | > 82.5 | – | –
Cn1c2c(c3cnn(Cc4c[nH]c5ncccc45)c(=O)c31)CCN(S(C)(=O)=O)C2 [Example 37, 3-((1H-pyrrolo[2,3-b]pyridin-3-yl)methyl)-5-methyl-7-(methylsulfonyl)-3,5,6,7,8,9-hexahydro-4H-pyrido[4′,3′:4,5]pyrrolo[2,3-d]pyridazin-4-one] | 207 | 106 | – | – | – | 59.3 (≈ 144 µM) | – | –
Cn1c2c(c3cnn(Cc4c[nH]c5cc(F)ccc45)c(=O)c31)CCN(S(C)(=O)=O)C2 [Example 39, 3-((6-fluoro-1H-indol-3-yl)methyl)-5-methyl-7-(methylsulfonyl)-6,7,8,9-tetrahydro-3H-pyrido[4′,3′:4,5]pyrrolo[2,3-d]pyridazin-4(5H)-one] | 217 | 92.7 | – | – | – | 1.09 (≈ 2.54 µM) | – | –
Cn1c2cc([S+](C)[O-])sc2c2cnn(Cc3cccc(N)c3)c(=O)c21 (stereo not shown) [TEPP-46, reference compound] | – | 113 | – | – | – | 0.15 (≈ 0.403 µM) | – | –

More lines, in order of falling EC50 [1], values ahead:

EC50 [1] [nM] | Emax [1] [%] | EC50 [2] [nM] | Emax [2] [%] | Kinetic solubility (Ksol); (μg/ml) ([3]; 1.5 h) | solubility kinetic at 1.5 h [3] [µg/mL] | IC50 [4] [nM] | Kinetic solubility (Ksol); ([3]; 1.5 h) [µg/mL] | Structure (SMILES)
1770 | 47.3 | > 320 | < 90 | – | 43.1 (≈ 104 µM) | 25.8 | – | Cn1c2c(c3cnn(Cc4cccc(N)c4)c(=O)c31)CCN(S(=O)(=O)C1CC1)C2 [Example 9, 3-(3-aminobenzyl)-7-(cyclopropylsulfonyl)-5-methyl-3,5,6,7,8,9-hexahydro-4H-pyrido[4′,3′:4,5]pyrrolo[2,3-d]pyridazin-4-one]
846 | 88.4 | 60 to 320 | < 90 | – | 9.9 (≈ 22 µM) | 14 | – | Cn1c2c(c3cnn(Cc4cccc(N)c4)c(=O)c31)CCN(S(=O)(=O)c1ccccc1)C2 [Example 11, 3-(3-aminobenzyl)-5-methyl-7-(phenylsulfonyl)-3,5,6,7,8,9-hexahydro-4H-pyrido[4′,3′:4,5]pyrrolo[2,3-d]pyridazin-4-one]
346 | 107 | 60 to 320 | 100 to 117 | – | 72.2 (≈ 186 µM) | 0.9 | – | Cn1c2c(c3cnn(Cc4cccc(N)c4)c(=O)c31)CCN(S(C)(=O)=O)C2 [Example 7, 3-(3-aminobenzyl)-5-methyl-7-(methylsulfonyl)-3,5,6,7,8,9-hexahydro-4H-pyrido[4′,3′:4,5]pyrrolo[2,3-d]pyridazin-4-one]
317 | 85.3 | 43.5 to 60 | < 90 | 0.87* μg/ml | 0.64 (≈ 1.46 µM) | 16.8 | – | COc1cc(F)c(Cn2ncc3c4c(n(C)c3c2=O)CN(S(C)(=O)=O)CC4)c(F)c1 [Example 6, 3-(2,6-difluoro-4-methoxybenzyl)-5-methyl-7-(methylsulfonyl)-3,5,6,7,8,9-hexahydro-4H-pyrido[4′,3′:4,5]pyrrolo[2,3-d]pyridazin-4-one]
306 | 93.7 | 60 to 320 | 100 to 117 | – | 36.1 (≈ 89.5 µM) | 4.5 | 36.19 | COc1ccc(Cn2ncc3c4c(n(C)c3c2=O)CN(S(C)(=O)=O)CC4)cn1 [Example 2, 3-((6-methoxypyridin-3-yl)methyl)-5-methyl-7-(methylsulfonyl)-3,5,6,7,8,9-hexahydro-4H-pyrido[4′,3′:4,5]pyrrolo[2,3-d]pyridazin-4-one]
